# Assay results: EPA's ToxRefDB 2
# Columns and labels:
# rat [1] = details: Combined chronic toxicity/carcinogenicity; fischer; Oral; Gavage/Intubation; dose end: 103 week; group: systemic; systemic / in life observation / clinical signs / lethargy + systemic / pathology microscopic / stomach / inflammation + systemic / …
# mouse [2] = details: Subchronic oral toxicity in rodents, b6c3f1, Gavage/Intubation, dose end: 13 week, group: systemic
# mouse [3] = details: Sub-acute repeat dose toxicity, b6c3f1, Oral, Gavage/Intubation, dose end: 16 day, group: systemic
# rat [4] = details: Multigenerational reproductive toxicity study, sprague dawley, Oral, Feed, dose end: 2 generation
# rat [5] = details: Sub-acute repeat dose toxicity; fischer; Oral; Gavage/Intubation; dose end: 16 day; group: systemic; systemic / in life observation / body weight / body weight gain
# mouse [6] = details: Carcinogenicity, b6c3f1, Oral, Gavage/Intubation, dose end: 103 week, group: systemic
# rat [7] = details: Subchronic oral toxicity in rodents, fischer, Gavage/Intubation, dose end: 13 week, group: systemic
# rat [8] = details: Developmental neurotoxicity study; fischer; Oral; Feed; dose end: 114 PND; group: cannot be grouped; systemic / in life observation / body weight / offspring (pup) weight
# rat [9] = details: Carcinogenicity; other; Oral; Feed; dose end: 80 week; group: systemic; systemic / in life observation / body weight / body weight + systemic / in life observation / clinical signs / anemia + systemic / in life …
# rat [10] = details: Developmental neurotoxicity study; fischer; Injection; Subcutaneous; dose end: 21 PND; group: cannot be grouped; systemic / in life observation / body weight / offspring (pup) weight + systemic / in life observation / clinical signs / tremors
# rat [11] = details: Subchronic oral toxicity in rodents, other, Feed, dose end: 13 week
# mouse [12] = details: Carcinogenicity, b6c3f1, Oral, Feed, dose end: 80 week, group: systemic
# [13] = systemic / in life observation / clinical signs / fur (altered appearance) + systemic / in life observation / clinical signs / lethargy
# [14] = systemic / in life observation / clinical signs / fur (altered appearance) + systemic / in life observation / clinical signs / lethargy + …
# [15] = systemic / in life observation / clinical signs / lethargy + systemic / in life observation / mortality / mortality
# [16] = group: offspring, systemic / in life observation / body weight / offspring (pup) weight
# [17] = group: parental, systemic / in life observation / body weight / body weight + systemic / in life observation / body weight / body weight gain + systemic / …
# [18] = group: parental, systemic / organ weight / kidney / relative to body weight
# [19] = systemic / in life observation / clinical signs / lethargy + systemic / in life observation / body weight / body weight
# [20] = systemic / in life observation / clinical signs / lethargy + systemic / in life observation / body weight / body weight + systemic / …
# [21] = systemic / organ weight / liver / absolute + systemic / organ weight / liver / relative to body weight
# [22] = group: maternal, reproductive / reproductive performance / mating / mating
# [23] = group: systemic, systemic / organ weight / kidney / absolute + systemic / organ weight / kidney / relative to body weight + systemic / organ weight / liver…
# [24] = systemic / pathology microscopic / liver / hyperplasia
# [25] = systemic / pathology microscopic / liver / hyperplasia + systemic / pathology microscopic / liver / hepatocellular carcinoma + systemic / in…
compound,measurement,setting,value
S=c1[nH]c2ccccc2s1 [2-Mercaptobenzothiazole],LEL,rat [1],188 mg/kg/day
same,LOAEL,rat [1],188 mg/kg/day
same,NEL,rat [1],< 188 mg/kg/day
same,NOAEL,rat [1],< 188 mg/kg/day
same,LEL,mouse [2]; [13],375 mg/kg/day
same,LOAEL,mouse [2]; [13],375 mg/kg/day
same,NEL,mouse [2]; [14],188 mg/kg/day
same,NOAEL,mouse [2]; [14],188 mg/kg/day
same,LOAEL,mouse [3]; systemic / in life observation / clinical signs / lethargy,1500 mg/kg/day
same,LEL,mouse [3]; [15],1500 mg/kg/day
same,NEL,mouse [3]; [15],750 mg/kg/day
same,NOAEL,mouse [3]; [15],750 mg/kg/day
same,LEL,rat [4]; [16],194 mg/kg/day
same,LOAEL,rat [4]; [16],194 mg/kg/day
same,NEL,rat [4]; [16],< 194 mg/kg/day
same,NOAEL,rat [4]; [16],< 194 mg/kg/day
same,LOAEL,rat [4]; [17],695 mg/kg/day
same,NOAEL,rat [4]; [17],194 mg/kg/day
same,LEL,rat [4]; [18],218 mg/kg/day
same,NEL,rat [4]; [18],< 218 mg/kg/day
same,LEL,rat [5],2500 mg/kg/day
same,LOAEL,rat [5],> 2500 mg/kg/day
same,NEL,rat [5],1250 mg/kg/day
same,NOAEL,rat [5],≥ 2500 mg/kg/day
same,LOAEL,mouse [6]; [19],375 mg/kg/day
same,NOAEL,mouse [6]; [19],< 375 mg/kg/day
same,LEL,mouse [6]; [20],375 mg/kg/day
same,NEL,mouse [6]; [20],< 375 mg/kg/day
same,LOAEL,rat [7]; systemic / in life observation / body weight / body weight gain + systemic / in life observation / clinical signs / irritability,750 mg/kg/day
same,LEL,rat [7]; [21],188 mg/kg/day
same,NEL,rat [7]; [21],< 188 mg/kg/day
same,NOAEL,rat [7]; systemic / organ weight / liver / absolute + systemic / organ weight / liver / relative to body weight + systemic / in life observation / …,375 mg/kg/day
O=C1C2(Cl)C3(Cl)C4(Cl)C(Cl)(Cl)C5(Cl)C3(Cl)C1(Cl)C5(Cl)C24Cl (stereo unspecified) [Kepone],LEL,rat [8],0.05 mg/kg/day
same,LOAEL,rat [8],> 0.3 mg/kg/day
same,NEL,rat [8],< 0.05 mg/kg/day
same,NOAEL,rat [8],≥ 0.3 mg/kg/day
same,LEL,rat [9],0.4 mg/kg/day
same,LOAEL,rat [9],0.4 mg/kg/day
same,NEL,rat [9],< 0.4 mg/kg/day
same,NOAEL,rat [9],< 0.4 mg/kg/day
same,LEL,rat [10],1 mg/kg/day
same,LOAEL,rat [10],> 1 mg/kg/day
same,NEL,rat [10],< 1 mg/kg/day
same,NOAEL,rat [10],≥ 1 mg/kg/day
same,LEL,rat [11]; [22],1.25 mg/kg/day
same,LOAEL,rat [11]; [22],> 1.25 mg/kg/day
same,NEL,rat [11]; [22],< 1.25 mg/kg/day
same,NOAEL,rat [11]; [22],≥ 1.25 mg/kg/day
same,LEL,rat [11]; [23],1.25 mg/kg/day
same,LOAEL,rat [11]; [23],> 1.25 mg/kg/day
same,NEL,rat [11]; [23],< 1.25 mg/kg/day
same,NOAEL,rat [11]; [23],≥ 1.25 mg/kg/day
same,LOAEL,mouse [12]; [24],3 mg/kg/day
same,NOAEL,mouse [12]; [24],< 3 mg/kg/day
same,LEL,mouse [12]; [25],3 mg/kg/day
same,NEL,mouse [12]; [25],< 3 mg/kg/day
